From US6858627B2, “Glucocorticoid mimetics, methods of making them, pharmaceutical compositions, and uses thereof” (Boehringer Ingelheim Pharmaceuticals, Inc., priority 2002, dated 2005)

Tests used:
[1] = tested on: glucocorticoid receptor; assay: Glucocorticoid receptor cell assays, antagonist activity; type: cell-based; conditions: assay not given
Method: B. Glucocorticoid Receptor Cell Assays
Evaluation of agonist or antagonist activity of compounds binding to the glucocorticoid receptor may be determined by any of the assays.
3. Modulation of Tyrosine Aminotransferase (TAT) Induction in Rat Hepatoma Cells
Testing of compounds for agonist or antagonist activity in induction of tyrosine aminotransferase (TAT) in rat hepatoma cells.
H4-II-E-C3 cells were incubated overnight in 96 well plates (20,000 cells/100 μL/well) in MEM medium containing 10% heat inactivated FBS and 1% nonessential amino acids. On the next day, cells were stimulated with the indicated concentrations of dexamethasone or test compound (dissolved in DMSO, final DMSO concentration 0.2%) for 18 hours. Control cells were treated with 0.2% DMSO. After 18 hours, the cells were lysed in a buffer containing 0.1% Triton X-100 and the TAT activity was measured in a photometric assay using tyrosine and alpha-ketoglutarate as substrates. […]
Cells were cultured overnight in DMEM medium without phenol red, supplemented with 3% CCS (charcoal treated calf serum) and then transferred to 96 well plates (15,000 cells/100 μL/well). […] After 18 hours, the cells were lysed with cell lysis reagent (Promega, Cat. No. E1531), luciferase assay reagent (Promega, Cat. No. E1501) was added and the glow luminescence was measured using a luminometer (BMG, Offenburg). […]

[2] = tested on: glucocorticoid receptor; assay: Glucocorticoid receptor function, one or more of the above assays (binding and cell assays); type: cell-based; conditions: in one or more of the above assays; assay not given
Method: Compounds of the invention were evaluated for binding to the steroid receptor by a fluorescence polarization competitive binding assay. Detailed descriptions for preparation of recombinant glucocorticoid receptor (GR) complex used in the assay is described in U.S. Patent Application Publication No. 2003/0,017,503, filed May 20, 2002, and the corresponding U.S. provisional application No. 60/291,877, filed May 18, 2001, each of which is incorporated herein by reference in its entirety. Preparation of the tetramethyl rhodamine (TAMRA)-labeled dexamethasone probe was accomplished using a standard literature procedure (M. Pons et al., J. Steroid Biochem., 1985, 22, pp. 267-273).
This assay uses fluorescence polarization (FP) to quantitate the ability of test compounds to compete with tetramethyl rhodamine (TAMRA)-labeled dexamethasone for binding to a human glucocorticoid receptor (GR) complex prepared from an insect expression system. […]
The binding reactions were incubated for 1 hour at room temperature and then read for fluorescence polarization in the LJL Analyst set to 550 nm excitation and 580 nm emission, with the Rhodamine 561 dichroic mirror installed. IC50 values were determined by iterative non-linear curve fitting of the FP signal data to a 4-parameter logistic equation. […]

Row | SMILES | activity as antagonists in cellular assays [1] | activity as an agonist of the glucocorticoid receptor function [2]
1 | C=CCOC(C)C1=CC(C)(C)Nc2ccc(-c3ccccc3OC)cc21 (stereo not drawn) [4-(1-Allyloxyethyl)-6-(2-methoxyphenyl)-2,2-dimethyl-1,2-dihydroquinoline] | potent activity as antagonists | 
2 | C=CCSCC1=CC(C)(C)Nc2ccc(-c3ccccc3OC)cc21 [4-Allylsulfanylmethyl-6-(2-methoxyphenyl)-2,2-dimethyl-1,2-dihydroquinoline] | potent activity as antagonists | 
3 | C=CCOC(C)C1=CC(C)(C)Nc2ccc(-c3cc(F)ccc3OC)cc21 (stereo not drawn) [4-(1-Allyloxyethyl)-6-(5-fluoro-2-methoxyphenyl)-2,2-dimethyl-1,2-dihydroquinoline] |  | activity as an agonist
